Reference: the NIST ThermoML archive (doi:10.1016/j.jct.2015.05.002)
± gives the expanded uncertainty stated by the source.

Test: mn = molality of the nth substance listed, in mol/kg
Details: 101.3 kPa, Liquid; for speed of sound: Frequency=3 MHz, Sing-around technique in a fixed-path interferometer; for mass density: Vibrating tube method

O=C[O-].[NH3+]CCCO [3-hydroxypropylammonium formate] + O
Details | mass density, m1 = 0.1 [kg/m3] | mass density, m1 = 0.21 [kg/m3] | mass density, m1 = 0.3 [kg/m3] | mass density, m1 = 0.42 [kg/m3] | speed of sound, m1 = 0.1 [m/s] | speed of sound, m1 = 0.21 [m/s] | speed of sound, m1 = 0.3 [m/s] | speed of sound, m1 = 0.42 [m/s]
293.15 K | 999.816 ± 0.65 | 1001.61 ± 0.65 | 1003.08 ± 0.65 | 1005.09 ± 0.66 | 1489.6 ± 2.7 | 1496.4 ± 2.7 | 1502.6 ± 2.7 | 1510.7 ± 2.7
298.15 K | – | 1000.35 ± 0.65 | – | 1003.64 ± 0.65 | – | 1508.3 ± 2.7 | – | 1520 ± 2.7
303.15 K | – | 998.914 ± 0.65 | – | 1002.15 ± 0.65 | – | 1519.6 ± 2.7 | – | 1530.5 ± 2.7
308.15 K | – | 997.259 ± 0.65 | – | 1000.45 ± 0.65 | – | 1529.4 ± 2.7 | – | 1540.3 ± 2.7
313.15 K | – | 995.402 ± 0.64 | – | 998.562 ± 0.65 | – | 1538 ± 2.7 | – | 1547.9 ± 2.7
318.15 K | – | 993.291 ± 0.64 | – | 996.504 ± 0.64 | – | 1545 ± 2.7 | – | 1554.3 ± 2.7
